According to US20240315247A1, “MICROBIOCIDAL QUINOLINE DIHYDRO-(THIAZINE)OXAZINE DERIVATIVES” (SYNGENTA CROP PROTECTION AG, priority 2020, published 2024):

Key:
[1] = tested on: Botryotinia fuckeliana (Botrytis cinerea); assay: Botryotinia fuckeliana (Botrytis cinerea) / liquid culture (Gray mould); format: cell-based; settings: growth inhibition photometrically 3-4 days after application, compared to untreated control
Description: (§1) Botryotinia Fuckeliana (Botrytis cinerea)/Liquid Culture (Gray Mould) Conidia of the fungus from cryogenic storage are directly mixed into nutrient broth (Vogels broth). After placing a (DMSO) solution of test compound into a microtiter plate (96-well format), the nutrient broth containing the fungal spores is added. The test plates are incubated at 24° C. and the inhibition of growth is determined photometrically 3-4 days after application.

[2] = tested on: Monographella nivalis (Microdochium nivale); assay: Monographella nivalis (Microdochium nivale) / liquid culture (Foot rot cereals); format: cell-based; settings: growth inhibition photometrically 4-5 days after application, compared to untreated control
Description: as §1, with “Monographella nivalis (Microdochium nivale)/Liquid” for “Botryotinia Fuckeliana (Botrytis cinerea)/Liquid”, “(Foot Rot Cereals)” for “(Gray Mould)”, “(PDB potato dextrose” for “(Vogels”, “4-5” for “3-4”

[3] = tested on: Glomerella lagenarium (Colletotrichum laqenarium); assay: Glomerella lagenarium (Colletotrichum lagenarium) / liquid culture (Anthracnose); format: cell-based; settings: growth inhibition photometrically 3-4 days after application, compared to untreated control
Description: as §1, with “Glomerella lagenarium (Colletotrichum laqenarium)/liquid culture (Anthracnose)” for “Botryotinia Fuckeliana (Botrytis cinerea)/Liquid Culture (Gray Mould)”, “(PDB potato dextrose” for “(Vogels”, “measured” for “determined”

Compound	inhibition of growth at 20 ppm [1]	inhibition of growth at 20 ppm [2]	inhibition of growth at 20 ppm [3]	melting point
CC1(COc2ccc(C#N)cc2)CC(C)(C)OC(c2cnc3c(F)cccc3c2)=N1 (stereo not drawn) [E.01, 4-[[2-(8-fluoro-3-quinolyl)-4,6,6-trimethyl-5H-1,3-oxazin-4-yl]methoxy]benzonitrile]	≥ 80%	≥ 80%	–	–
CC1(COc2ccc(Br)cc2Br)CC(C)(C)OC(c2cnc3c(F)cccc3c2)=N1 (stereo not drawn) [E.02, 4-[(2,4-dibromophenoxy)methyl]-2-(8-fluoro-3-quinolyl)-4,6,6-trimethyl-5H-1,3-oxazine]	≥ 80%	≥ 80%	–	–
CC1(COc2ccc(Br)cc2)CC(C)(C)OC(c2cnc3c(F)cccc3c2)=N1 (stereo not drawn) [E.03, 4-[(4-bromophenoxy)methyl]-2-(8-fluoro-3-quinolyl)-4,6,6-trimethyl-5H-1,3-oxazine]	≥ 80%	≥ 80%	≥ 80%	–
CC1(COc2ccc(F)cc2)CC(C)(C)OC(c2cnc3c(F)cccc3c2)=N1 (stereo not drawn) [E.04, 4-[(4-fluorophenoxy)methyl]-2-(8-fluoro-3-quinolyl)-4,6,6-trimethyl-5H-1,3-oxazine]	≥ 80%	≥ 80%	≥ 80%	–
Cc1nc2c(F)c(F)ccc2cc1C1=NC(C)(COc2ccccc2)CC(C)(C)O1 (stereo not drawn) [E.05, 2-(7,8-difluoro-2-methyl-3-quinolyl)-4,6,6-trimethyl-4-(phenoxymethyl)-5H-1,3-oxazine]	≥ 80%	≥ 80%	–	–
CC1(COc2ccccc2)CC(C)(C)OC(c2cnc3c(F)c(F)ccc3c2)=N1 (stereo not drawn) [E.06, 2-(7,8-difluoro-3-quinolyl)-4,6,6-trimethyl-4-(phenoxymethyl)-5H-1,3-oxazine]	≥ 80%	≥ 80%	–	105 to 107 °C
CC1(C)CC(COc2ccccc2)N=C(c2cnc3c(F)c(F)ccc3c2)O1 (stereo not drawn) [E.07, 2-(7,8-difluoro-3-quinolyl)-6,6-dimethyl-4-(phenoxymethyl)-4,5-dihydro-1,3-oxazine]	≥ 80%	≥ 80%	–	–
CC1(COc2ccccc2)CC(C)(C)OC(c2cnc3c(F)cccc3c2)=N1 (stereo not drawn) [E.08, 2-(8-fluoro-3-quinolyl)-4,6,6-trimethyl-4-(phenoxymethyl)-5H-1,3-oxazine]	≥ 80%	≥ 80%	≥ 80%	–
CC1(C)CC(CC(F)(F)F)N=C(c2cnc3c(F)c(F)ccc3c2)O1 (stereo not drawn) [E.09, 2-(7,8-difluoro-3-quinolyl)-6,6-dimethyl-4-(2,2,2-trifluoroethyl)-4,5-dihydro-1,3-oxazine]	–	≥ 80%	–	146 to 148 °C
CC1(C)CC(CCC(F)(F)F)N=C(c2cnc3c(F)c(F)ccc3c2)O1 (stereo not drawn) [E.010, 2-(7,8-difluoro-3-quinolyl)-6,6-dimethyl-4-(3,3,3-trifluoropropyl)-4,5-dihydro-1,3-oxazine]	≥ 80%	≥ 80%	–	–
CC(C)(C)CC1CC(C)(C)OC(c2cnc3c(F)c(F)ccc3c2)=N1 (stereo not drawn) [E.011, 2-(7,8-difluoro-3-quinolyl)-4-(2,2-dimethylpropyl)-6,6-dimethyl-4,5-dihydro-1,3-oxazine]	≥ 80%	≥ 80%	–	112 to 113 °C
CC(C)CC1CC(C)(C)OC(c2cnc3c(F)c(F)ccc3c2)=N1 (stereo not drawn) [E.012, 2-(7,8-difluoro-3-quinolyl)-4-isobutyl-6,6-dimethyl-4,5-dihydro-1,3-oxazine]	≥ 80%	≥ 80%	≥ 80%	–
CC(C)CC1(C)CC(C)(C)OC(c2cnc3c(F)cccc3c2)=N1 (stereo not drawn) [E.013, 2-(8-fluoro-3-quinolyl)-4-isobutyl-4,6,6-trimethyl-5H-1,3-oxazine]	≥ 80%	≥ 80%	≥ 80%	–
CC(C)CC1(C)CC(C)(C)OC(c2cnc3c(F)c(F)ccc3c2)=N1 (stereo not drawn) [E.014, 2-(7,8-difluoro-3-quinolyl)-4-isobutyl-4,6,6-trimethyl-5H-1,3-oxazine]	≥ 80%	≥ 80%	≥ 80%	–
CC1(CC2CCCCC2)CC(C)(C)OC(c2cnc3c(F)c(F)ccc3c2)=N1 (stereo not drawn) [E.015, 4-(cyclohexylmethyl)-2-(7,8-difluoro-3-quinolyl)-4,6,6-trimethyl-5H-1,3-oxazine]	≥ 80%	≥ 80%	≥ 80%	–
C=C(C)CC1(C)CC(C)(C)OC(c2cnc3c(F)c(F)ccc3c2)=N1 (stereo not drawn) [E.016, 2-(7,8-difluoro-3-quinolyl)-4,6,6-trimethyl-4-(2-methylallyl)-5H-1,3-oxazine]	≥ 80%	≥ 80%	≥ 80%	–
CC(C)CC1(C)CC(C)(C(C)C)OC(c2cnc3c(F)cccc3c2)=N1 (stereo not drawn) [E.017, 2-(8-fluoro-3-quinolyl)-4-isobutyl-6-isopropyl-4,6-dimethyl-5H-1,3-oxazine]	≥ 80%	≥ 80%	≥ 80%	–
CCC1(C)CC(C)(CC(C)C)N=C(c2cnc3c(F)cccc3c2)O1 (stereo not drawn) [E.018, 6-ethyl-2-(8-fluoro-3-quinolyl)-4-isobutyl-4,6-dimethyl-5H-1,3-oxazine]	≥ 80%	≥ 80%	≥ 80%	–
C=C(C)CC1(C)CC(C)(C)OC(c2cnc3c(F)cccc3c2)=N1 (stereo not drawn) [E.019, 2-(8-fluoro-3-quinolyl)-4,6,6-trimethyl-4-(2-methylallyl)-5H-1,3-oxazine]	≥ 80%	≥ 80%	≥ 80%	–
C=C(C)CC1(CC)CC(C)(C)OC(c2cnc3c(F)cccc3c2)=N1 (stereo not drawn) [E.020, 4-ethyl-2-(8-fluoro-3-quinolyl)-6,6-dimethyl-4-(2-methylallyl)-5H-1,3-oxazine]	≥ 80%	≥ 80%	≥ 80%	–
